Consider 1 molecule from US20240100190A1, “Brain Disease Therapy Enhancing Inhibition of GABAergic Neurons” (priority 2022, published 2024).

The nature of series [1]: Spontaneous locomotion detection (active time). As to conditions: after CNO administration in two groups.
Protocol: The animals are housed separately under a standard 12-h light/dark cycle and stable temperature (23-25° C.) with full access to food and water.
A summation of each pixel value for the difference is used to decide whether the animal moves between these three frames. […] Animal movements are analyzed by the program. The active time for each mouse is determined every 24 h.
The behavioral effects after CNO intervention in the two groups are evaluated.
The test system of series [2] is GABAergic neurons. The series is described as follows: Current-clamp cortical slice recordings with CNO application. The series is classed as cell-based, mice. As to conditions: after CNO, hM3Dq-expressing neurons in cortical slices, 13 neurons. Here is the method:
Briefly, anesthetized mice receive transcardial perfusion withN-methyl-D-glucamine (NMDG)-aCSF (92 mM NMDG, 2.5 mM KCl, 1.2 mM NaH2PO4, 30 mM NaHCO3, 20 mM N-2-Hydroxyethylpiperazine-N-2-Ethane Sulfonic Acid (HEPES), 25 mM glucose, 2 mM thiourea, 5 mM Na-ascorbate, 3 mM Na-pyruvate, 0.5 mM CaCl2·4H2O, and 10 mM MgSO4·7H2O; adjusted pH to 7.3-7.4 with concentrated HCl), and the brain is gently and rapidly extracted from the skull and then cut into 300 μm-thick sections with a vibratome (Leica VT1200S). […]
Brain slices are then bathed in room-temperature recording aCSF (124 mM NaCl, 2.5 mM KCl, 1.2 mM NaH2PO4, 24 mM NaHCO3, 5 mM HEPES, 12.5 mM glucose, 2 mM CaCl2·4H2O and 2 mM MgSO4·7H2O, ˜25° C.) and whole-cell recordings are made at the auditory cortex using Multiclamp 700B amplifier (Molecular Devices, www.moleculardevices.com, Menlo Park, California, USA) and Digital 1440A digitizer (Molecular Devices, www.moleculardevices.com, Menlo Park, California, USA). […] 0.3 mL CNO (0.2 mg/mL) is gently infused into the recording chamber (5-7 mL recording aCSF) and recorded for at least 20 minutes. The firing rate is analyzed with Clampfit 11.2 (Molecular Devices, www.moleculardevices.com, Menlo Park, California, USA). […]

Series [3] concerns GABAergic neurons. The experiment in a line: CNO administration and in vivo recordings in the auditory cortex. Details: species or system mice. As for the experimental part:
In vivo recordings are performed in the ACs of mice using the same surgery setup described above.
For each time point, an average of six evoked responses is used. The inventors average the LFP amplitudes every six trials (MATLAB), which represents a 1-min recording. The representative waveforms are also plotted with MATLAB (MathWorks.Inc, Natick, US; https://ww2.mathworks.cn/). […] The results are exported into Excel for offline analysis and plotting.
C57BL/6J male mice (6-7 weeks old) are anesthetized with pentobarbital (100 mg/kg) supplemented with atropine (0.05 mg/kg, Sigma). The anesthetized mice are head-fixed using a stereotaxic device (RWD Life Science; Shen Zhen, China; https://www.rwdstco.com/). […] The PHP.eB serotype virus, which readily crosses the BBB for brain transduction, is produced using standard production methods. A glass pipette tip (at an angle of […] to about 45°) is used to slowly touch the surface of the transverse venous sinus with the injection pump running at a slow speed (100 nL/min). After the glass pipette tip penetrates the vessel, the injection speed is increased to 1,000 nL/min. A total of 50 μL of the virus (1.5E12 VGs/kg of body weight, VG, vector genome) is injected.
To verify the CNO administration can suppress the response to the AS through the potentiation of inhibition, electrophysiological recordings of neuronal firing and LFP response to the AS before and after the CNO application are performed.

For series [4], the system named is GABAergic neurons. The experiment in a line: Laser pulse induced IPSC recording in cortex. As to conditions: hM3Dq and DIO-ChrimsonR-mCherry injected cortex; laser 0.1 Hz; baseline 100.22±0.66%. The series is classed as cell-based, Vgat-Cre mice. From the text:
FIG. 4A is a diagram showing the hM3Dq and DIO-ChrimsonR-mCherry injection into the cortex of Vgat-Cre mice.

[5] abbreviates: hM3Dq mice, n=30 recording sites.

As to `C[N+]1([O-])CCN(C2=Nc3cc(Cl)ccc3Nc3ccccc32)CC1` [CNO, clozapine-N-oxide], the “side effects (astrocytic reactivity and locomotion)” value in series [1] is “not detected”. For the same molecule, the “mean highest firing rate in bursts” value with GABAergic neurons [2] worked out at 33.24±2.46 Hz. In the series with GABAergic neurons [3] (hM3Dq mice), the “duration of activation of the new units after the CNO application” value is 25 min. In addition, in the series on GABAergic neurons [3] (setting [5]), the “number of spike-sorted units after the CNO injection” value worked out at 4.30±0.27 and the “number of spike-sorted units before CNO injection” value came out at 2.73±0.27. The “maximum firing frequency during the bursts of the new units after CNO application” value in the series on GABAergic neurons [3] (n=44 units, mean) was found to be 32.63±3.30 Hz. Moreover, the “normalized IPSCs amplitude 35-40 min after CNO” value in the series on GABAergic neurons [4] turned out to be 250.62±6.46%.
